O=c1[nH]c(=O)n(C2CCCO2)cc1F (centres undefined)
solubility (mole fraction)
Details	273.15 K	278.15 K	283.15 K	288.15 K	293.15 K	298.15 K	303.15 K	308.15 K	313.15 K
in acetone	0.00932	0.0115	0.014	0.0168	0.0196	0.0233	0.0277	0.0326	0.0388
in ethanol	0.00118	0.00152	0.00198	0.00253	0.00318	0.00402	0.00506	0.00629	0.00767
in ethyl acetate	0.00607	0.00718	0.00837	0.00957	0.0109	0.0122	0.0137	0.0153	0.0175
in isopropanol	0.00086	0.00109	0.00139	0.00179	0.00227	0.00286	0.00358	0.00444	0.00547
in methanol	0.00362	0.00428	0.00495	0.00592	0.00692	0.00802	0.00925	0.0107	0.0126
in n-propanol	0.00112	0.00141	0.00176	0.00223	0.00274	0.00343	0.0042	0.00516	0.00618

— BigSolDB 2.1
